Test results reported in PMC12295306, “Gut Microbial Postbiotics as Potential Therapeutics for Lymphoma: Proteomics Insights of the Synergistic Effects of Nisin and Urolithin B Against Human Lymphoma Cells” (International Journal of Molecular Sciences, 2025).
Blank lines part the entries; values can stand above or below the molecule they belong to.

What was measured:
HKB-11 lymphoma cells [1] = test: ROS production, H2DCFDA assay; type: cell-based, human; settings: 4 h
Method: Briefly, HKB-11 lymphoma cells (2.5 × 10^5 cells/mL) were cultured in a 96-well plate, allowed to adhere overnight, and treated with 20 μM H2DCFDA for 45 min to assess ROS levels. The dye solution was removed, and cells were washed with 1× buffer. Next, the cells were treated with N (8000 μM), N (4000 μM), UB (500 μM), UB (250 μM), N/UB (3500 μM), N/UB (1750 μM), N/UB (5750 μM), N/UB (2875 μM), Dox (4 μM), and tert-butyl hydroperoxide (TBHP) (150 μM) and then incubated at 37 °C for 4 h. Finally, the plate was immediately read at Ex/Em = 485/535 nm using a microplate spectrophotometer (BMG CLARIOstar, VIC, Australia). The fold change in ROS production was determined relative to the untreated control (cells treated with the supplement buffer according to the manufacturer’s protocol).

HKB-11 lymphoma cells [2] = test: Flow cytometry apoptosis profile, Annexin V-CF Blue / 7-AAD; type: cell-based, human; settings: HKB-11, 4 µM, 24 h; p ≤ 0.0001
Method: The HKB-11 cells were cultured in T75 cell culture flasks with an initial density of 1 × 10^6 cells per 10 mL at 37 °C in the presence of 5% CO2 for 24 h. The following day, the cell culture media was removed from each flask and replaced with fresh FBS-containing media. […] An FBS-containing medium was used as the untreated control. The flasks were then incubated at 37 °C with 5% CO2 for 24 h. Then, the cell culture media from each flask were collected. Subsequently, trypsin (0.25% w/v) was applied to the flasks for 4 min at 37 °C. The trypsin reaction was neutralised with an equal volume of 10% FBS serum-containing media, and the cells were combined with the previously collected media. The cell pellets were obtained by centrifuging at 500× g for 5 min at room temperature (RT). This procedure was repeated by suspending the cell pellets in 1 mL of PBS each time. The collected cell pellets from each treatment were immediately suspended in 500 μL of 1× binding buffer and gently mixed by pipetting. Annexin V-CF Blue (5 μL) and 7-AAD (5 μL) staining solutions were added to 100 μL of the cell suspension. The stained cells were incubated for 15 min in the dark at RT, after which 400 μL of a 1× assay buffer was added to each cell suspension. Subsequently, the cells were examined using a flow cytometer (Novocyte 3000, ACEA Biosciences Inc., San Diego, CA, USA), and data analysis and processing were performed using NovoExpress software (version 1.5.0, ACEA Biosciences Inc., CA, USA). In the initial step, the cells were gated on forward and side scatter modes to exclude cell aggregates and debris near the origin. The cells were then gated on dot plots, where Annexin V-CF in Pacific Blue was plotted against 7-AAD fluorescence in PerCP. Quadrants were positioned relative to the untreated control, indicating live cells ([…] and −7-AAD) appearing in the lower-left quadrant, early apoptotic cells (+Annexin V and −7-AAD) in the lower-right quadrant, late apoptotic cells (+Annexin V and +7-AAD) in the upper-right quadrant, and necrotic cells (−Annexin V and +7-AAD) in the upper-left quadrant. For statistical analyses and visualisation, the percentage data of cells in each quadrant after different treatments (n = 3) were exported to GraphPad Prism software (version 9.0, San Diego, CA, USA).

[3] = tested on: HKB-11 human lymphoma cells; test: Alamar Blue antiproliferative assay, HKB-11; type: cell-based; settings: HKB-11, 72 h, single postbiotics, GraphPad Prism nonlinear regression; for IC50: read-out: IC50 (concentration required to inhibit 50% of cell growth)
Method: The cell viability of the HKB-11, Hs 313.T, and HS-5 cells after treatment with different concentrations of the seven different postbiotics, including SCFA salts (magnesium acetate, sodium propionate, and sodium butyrate), UA and UB, purine nucleoside (inosine), and bacteriocin (N), was determined using the Alamar Blue assay as per the method described earlier. Briefly, 100 μL of cells was cultured in 96-well plates at a 3 × 10^5 cells/mL seeding density. After 24 h, the cells were treated with 16,000 µM of each postbiotic except for the urolithins, which were applied at 500 µM using a 1:2 serial dilution across a 10-point dose–response curve, followed by a 72 h incubation. A positive control using doxorubicin was prepared at a concentration of 4 μM, and an untreated control with 0.1% DMSO was added to every plate. At the end of the incubation period, the culture media were removed, and 100 μL of a 0.1 mg/mL Alamar Blue solution (resazurin, prepared as a stock solution at 1 mg/mL in freshly made PBS, followed by a 1:10 dilution with serum-free media) was added to each well. The fluorescence levels were assessed using a microplate spectrophotometer (BMG CLARIOstar, Mornington, VIC, Australia) with an excitation wavelength of 555 nm and emission measurement at 595 nm. The compounds were tested in triplicate, with the untreated control taken as 100% cell viability.
Data were collected and managed using MS Office Excel and GraphPad Prism for statistical analyses and visualisation. Data collection and analyses were carried out in triplicate, and the outcomes were presented as the mean ± standard deviation. Statistical significance between the mean values was determined at p ≤ 0.05 employing a two-way ANOVA. Tukey and Dunnett’s tests were utilised within GraphPad Prism software to perform nonlinear regression and multiple comparisons. Furthermore, GraphPad Prism software computed the IC50 value (representing the drug concentration required to achieve a 50% cell growth inhibition). The experimental groups in the proteomics study were compared statistically using unpaired t-tests, assuming equal variances. Candidate proteins were selected based on an absolute log2 fold change ≥ 0.58 and a Q-value ≤ 0.05. Enrichment analysis was subsequently conducted using Ingenuity Pathway Analysis (IPA), applying a significance threshold of adjusted Q ≤ 0.05 to identify functionally enriched pathways, focusing on those with an absolute z-score of ≥1.

SMILES: COc1cccc2c1C(=O)c1c(O)c3c(c(O)c1C2=O)C[C@@](O)(C(=O)CO)C[C@@H]3O[C@H]1C[C@H](N)[C@H](O)[C@H](C)O1 [Dox, doxorubicin, reference compound]
ROS production (positive control) (HKB-11 lymphoma cells [1]; HKB-11, 4 μM): induced high ROS production | Apoptosis induction (positive control) (HKB-11 lymphoma cells [2]): significantly induced apoptosis | Necrotic cell death compared to the untreated control and other treatment groups (HKB-11 lymphoma cells [2]): markedly higher proportion of necrotic cell death

IC50 (concentration required to inhibit 50% of cell growth) [3]: could not be calculated
SMILES: O=c1[nH]cnc2c1ncn2[C@@H]1O[C@H](CO)[C@@H](O)[C@H]1O [Inosine, inosine]

IC50 (concentration required to inhibit 50% of cell growth) [3]: could not be calculated
SMILES: CC(=O)[O-].CC(=O)[O-].[Mg+2] [Magnesium Acetate, magnesium acetate]

IC50 [3]: 2020 µM
SMILES: CCCC(=O)[O-].[Na+] [Sodium Butyrate, sodium butyrate]

IC50 [3]: 14600 µM
SMILES: CCC(=O)[O-].[Na+] [Sodium Propionate, sodium propionate]

SMILES: CC(C)(C)OO [TBHP, tert-butyl hydroperoxide, reference compound]
ROS production (positive control) (HKB-11 lymphoma cells [1]; HKB-11, 150 μM): induced high ROS production

IC50 [3]: 384 µM
SMILES: O=c1oc2cc(O)ccc2c2ccc(O)cc12 [UA, Urolithin A]
